Source: article PMC5970136, “Molecular basis of dimer formation during the biosynthesis of benzofluorene-containing atypical angucyclines” (Nature Communications, 2018)
In brackets after ≈: the same amount, converted by molar mass.

Each compound was assayed on T1, Staphylococcus aureus MRSA ATCC 43300 (assay: microbe, parasite or virus in culture). Settings: 18 h.
T1 construct: ATCC 43300 (methicillin resistant)
Parameters: broth microdilution in Mueller-Hinton broth, minimum inhibitory concentration
Procedure: (§1) Antimicrobial activities were measured against seven indicator strains (Staphylococcus aureus ATCC 29213, Escherichia coli ATCC 25922, Enterococcus faecalis ATCC 29212, Acinetobacter baumannii ATCC 19606, Bacillus subtilis SCSIO BS01, Micrococcus Luteus SCSIO ML01, and methicillin resistant S. aureus ATCC 43300) by the broth microdilution method[8],[9]. Bacterial strains were grown to achieve an optical absorbance of 0.04−0.06 at 600 nm on a rotary shaker at 37 °C. […] The minimum inhibitory concentration (MIC) values were measured after 18 h cultivation. Each compound was tested in triplicates with TMP as a positive control. […] A proof of concept experiment was carried out in which FST D (7) was incubated with the antibacterial agent trimethoprim (TMP, 34). Two products 35 and 36 isolated from this reaction (Fig. 6a, Supplementary Fig. 128) were structurally characterized as hybrids of TMP and FST (Fig. 6a; Supplementary Figs. 129−142). Similar results were obtained upon incubation of TMP (34) with compound 27, but not with compound 28 (Supplementary Fig. 143). These findings again support the hypothesis that spontaneous formation of a p-QM precursor is a prerequisite for the production of FST hybrids.

SMILES	MIC [µg/mL]
COc1cc(Cc2cnc(N)nc2N)cc(OC)c1OC [Trimethoprim]	0.5 (≈ 1.72 µM)
Cc1ccc2c3c(c(O)cc2c1O)-c1c(O)cccc1C3=O [compound 12, isoprefluostatin]	64 (≈ 219 µM)
C[C@]12O[C@H]1[C@H](Nc1ccc(C(=O)O)cc1)c1c(cc(O)c3c1C(=O)c1cccc(O)c1-3)C2=O [compound 14, FST S]	> 64
CC(=O)NN1c2c(c3c(c4c2C(=O)C(C)(O)C=C4)C(=O)c2cccc(O)c2-3)OC2C1c1c(cc(O)c3c1C(=O)c1cccc(O)c1-3)C(=O)C2(C)O (centres unmarked) [compound 15, difluostatin B]	> 64
Cc1cc(O)cc(O)c1C(=O)c1c(O)cccc1Cc1cc2c(c(=O)o1)C1c3c(cc(O)c4c3C(=O)c3cccc(O)c3-4)C(=O)C(C)(O2)C1O (centres unmarked) [compound 16, difluostatin C]	> 64
CC12OC1C(O)c1c(cc(O)c3c1C(=O)c1c(C4c5c(cc(O)c6c5C(=O)c5cccc(O)c5-6)C(=O)C5(C)OC45)ccc(O)c1-3)C2=O (centres unmarked) [compound 24, difluostatin F]	> 64
COC1c2c(cc(O)c3c2C(=O)c2c(C4c5c(cc(O)c6c5C(=O)c5cccc(O)c5-6)C(=O)C5(C)OC45)ccc(O)c2-3)C(=O)C2(C)OC12 (centres unmarked) [compound 26, difluostatin H]	> 64
Cc1ccc2c(c1)OC1(C)C(=O)c3cc(O)c4c(c3C(N2)C1O)C(=O)c1cccc(O)c1-4 (centres unmarked) [compound 33, 33]	> 64

The compounds below were run on T2, E. faecalis ATCC 29212 (assay: microbe, parasite or virus in culture). Settings: Enterococcus faecalis, ATCC29212, 18 h.
T2 construct: ATCC 29212
Parameters: broth microdilution in Mueller-Hinton broth, minimum inhibitory concentration
Procedure: as §1

SMILES	MIC [µg/mL]
COc1cc(Cc2cnc(N)nc2N)cc(OC)c1OC [Trimethoprim]	2 (≈ 6.89 µM)
Cc1ccc2c3c(c(O)cc2c1O)-c1c(O)cccc1C3=O [compound 12, isoprefluostatin]	> 64
C[C@]12O[C@H]1[C@H](Nc1ccc(C(=O)O)cc1)c1c(cc(O)c3c1C(=O)c1cccc(O)c1-3)C2=O [compound 14, FST S]	> 64
CC(=O)NN1c2c(c3c(c4c2C(=O)C(C)(O)C=C4)C(=O)c2cccc(O)c2-3)OC2C1c1c(cc(O)c3c1C(=O)c1cccc(O)c1-3)C(=O)C2(C)O (centres unmarked) [compound 15, difluostatin B]	> 64
Cc1cc(O)cc(O)c1C(=O)c1c(O)cccc1Cc1cc2c(c(=O)o1)C1c3c(cc(O)c4c3C(=O)c3cccc(O)c3-4)C(=O)C(C)(O2)C1O (centres unmarked) [compound 16, difluostatin C]	> 64
CC12OC1C(O)c1c(cc(O)c3c1C(=O)c1c(C4c5c(cc(O)c6c5C(=O)c5cccc(O)c5-6)C(=O)C5(C)OC45)ccc(O)c1-3)C2=O (centres unmarked) [compound 24, difluostatin F]	> 64
COC1c2c(cc(O)c3c2C(=O)c2c(C4c5c(cc(O)c6c5C(=O)c5cccc(O)c5-6)C(=O)C5(C)OC45)ccc(O)c2-3)C(=O)C2(C)OC12 (centres unmarked) [compound 26, difluostatin H]	> 64
Cc1ccc2c(c1)OC1(C)C(=O)c3cc(O)c4c(c3C(N2)C1O)C(=O)c1cccc(O)c1-4 (centres unmarked) [compound 33, 33]	> 64

What follows are compounds tested on T3, B. subtilis SCSIO BS01 (assay: microbe, parasite or virus in culture). Settings: Bacillus subtilis, SCSIOBS01, 18 h.
T3 construct: SCSIO BS01
Parameters: broth microdilution in Mueller-Hinton broth, minimum inhibitory concentration
Procedure: as §1

SMILES	MIC [µg/mL]
COc1cc(Cc2cnc(N)nc2N)cc(OC)c1OC [Trimethoprim]	0.5 (≈ 1.72 µM)
Cc1ccc2c3c(c(O)cc2c1O)-c1c(O)cccc1C3=O [compound 12, isoprefluostatin]	32 (≈ 109 µM)
C[C@]12O[C@H]1[C@H](Nc1ccc(C(=O)O)cc1)c1c(cc(O)c3c1C(=O)c1cccc(O)c1-3)C2=O [compound 14, FST S]	> 64
CC(=O)NN1c2c(c3c(c4c2C(=O)C(C)(O)C=C4)C(=O)c2cccc(O)c2-3)OC2C1c1c(cc(O)c3c1C(=O)c1cccc(O)c1-3)C(=O)C2(C)O (centres unmarked) [compound 15, difluostatin B]	> 64
Cc1cc(O)cc(O)c1C(=O)c1c(O)cccc1Cc1cc2c(c(=O)o1)C1c3c(cc(O)c4c3C(=O)c3cccc(O)c3-4)C(=O)C(C)(O2)C1O (centres unmarked) [compound 16, difluostatin C]	> 64
CC12OC1C(O)c1c(cc(O)c3c1C(=O)c1c(C4c5c(cc(O)c6c5C(=O)c5cccc(O)c5-6)C(=O)C5(C)OC45)ccc(O)c1-3)C2=O (centres unmarked) [compound 24, difluostatin F]	> 64
COC1c2c(cc(O)c3c2C(=O)c2c(C4c5c(cc(O)c6c5C(=O)c5cccc(O)c5-6)C(=O)C5(C)OC45)ccc(O)c2-3)C(=O)C2(C)OC12 (centres unmarked) [compound 26, difluostatin H]	64 (≈ 99.3 µM)
Cc1ccc2c(c1)OC1(C)C(=O)c3cc(O)c4c(c3C(N2)C1O)C(=O)c1cccc(O)c1-4 (centres unmarked) [compound 33, 33]	> 64

Each compound was assayed on T4, M. Luteus SCSIO ML01 (assay: microbe, parasite or virus in culture). Settings: Micrococcus luteus, 18 h.
T4 construct: SCSIO ML01
Parameters: broth microdilution in Mueller-Hinton broth, minimum inhibitory concentration
Procedure: as §1

SMILES	MIC [µg/mL]
COc1cc(Cc2cnc(N)nc2N)cc(OC)c1OC [Trimethoprim]	1 (≈ 3.44 µM)
Cc1ccc2c3c(c(O)cc2c1O)-c1c(O)cccc1C3=O [compound 12, isoprefluostatin]	64 (≈ 219 µM)
C[C@]12O[C@H]1[C@H](Nc1ccc(C(=O)O)cc1)c1c(cc(O)c3c1C(=O)c1cccc(O)c1-3)C2=O [compound 14, FST S]	> 64
CC(=O)NN1c2c(c3c(c4c2C(=O)C(C)(O)C=C4)C(=O)c2cccc(O)c2-3)OC2C1c1c(cc(O)c3c1C(=O)c1cccc(O)c1-3)C(=O)C2(C)O (centres unmarked) [compound 15, difluostatin B]	> 64
Cc1cc(O)cc(O)c1C(=O)c1c(O)cccc1Cc1cc2c(c(=O)o1)C1c3c(cc(O)c4c3C(=O)c3cccc(O)c3-4)C(=O)C(C)(O2)C1O (centres unmarked) [compound 16, difluostatin C]	> 64
CC12OC1C(O)c1c(cc(O)c3c1C(=O)c1c(C4c5c(cc(O)c6c5C(=O)c5cccc(O)c5-6)C(=O)C5(C)OC45)ccc(O)c1-3)C2=O (centres unmarked) [compound 24, difluostatin F]	> 64
COC1c2c(cc(O)c3c2C(=O)c2c(C4c5c(cc(O)c6c5C(=O)c5cccc(O)c5-6)C(=O)C5(C)OC45)ccc(O)c2-3)C(=O)C2(C)OC12 (centres unmarked) [compound 26, difluostatin H]	> 64
Cc1ccc2c(c1)OC1(C)C(=O)c3cc(O)c4c(c3C(N2)C1O)C(=O)c1cccc(O)c1-4 (centres unmarked) [compound 33, 33]	> 64

What follows are compounds tested on T5, A. baumannii ATCC 19606 (assay: microbe, parasite or virus in culture). Settings: Acinetobacter baumannii, ATCC19606, 18 h.
T5 construct: ATCC 19606
Parameters: broth microdilution in Mueller-Hinton broth, minimum inhibitory concentration
Procedure: as §1

SMILES	MIC [µg/mL]
COc1cc(Cc2cnc(N)nc2N)cc(OC)c1OC [Trimethoprim]	64 (≈ 220 µM)
Cc1ccc2c3c(c(O)cc2c1O)-c1c(O)cccc1C3=O [compound 12, isoprefluostatin]	> 64
C[C@]12O[C@H]1[C@H](Nc1ccc(C(=O)O)cc1)c1c(cc(O)c3c1C(=O)c1cccc(O)c1-3)C2=O [compound 14, FST S]	> 64
CC(=O)NN1c2c(c3c(c4c2C(=O)C(C)(O)C=C4)C(=O)c2cccc(O)c2-3)OC2C1c1c(cc(O)c3c1C(=O)c1cccc(O)c1-3)C(=O)C2(C)O (centres unmarked) [compound 15, difluostatin B]	> 64
Cc1cc(O)cc(O)c1C(=O)c1c(O)cccc1Cc1cc2c(c(=O)o1)C1c3c(cc(O)c4c3C(=O)c3cccc(O)c3-4)C(=O)C(C)(O2)C1O (centres unmarked) [compound 16, difluostatin C]	> 64
CC12OC1C(O)c1c(cc(O)c3c1C(=O)c1c(C4c5c(cc(O)c6c5C(=O)c5cccc(O)c5-6)C(=O)C5(C)OC45)ccc(O)c1-3)C2=O (centres unmarked) [compound 24, difluostatin F]	> 64
COC1c2c(cc(O)c3c2C(=O)c2c(C4c5c(cc(O)c6c5C(=O)c5cccc(O)c5-6)C(=O)C5(C)OC45)ccc(O)c2-3)C(=O)C2(C)OC12 (centres unmarked) [compound 26, difluostatin H]	> 64
Cc1ccc2c(c1)OC1(C)C(=O)c3cc(O)c4c(c3C(N2)C1O)C(=O)c1cccc(O)c1-4 (centres unmarked) [compound 33, 33]	> 64

These compounds were tested on T6, E. coli ATCC 25922 (assay: microbe, parasite or virus in culture). Settings: Escherichia coli, ATCC25922, 18 h.
T6 construct: ATCC 25922
Parameters: broth microdilution in Mueller-Hinton broth, minimum inhibitory concentration
Procedure: as §1

SMILES	MIC [µg/mL]
COc1cc(Cc2cnc(N)nc2N)cc(OC)c1OC [Trimethoprim]	0.25 (≈ 0.861 µM)
Cc1ccc2c3c(c(O)cc2c1O)-c1c(O)cccc1C3=O [compound 12, isoprefluostatin]	> 64
C[C@]12O[C@H]1[C@H](Nc1ccc(C(=O)O)cc1)c1c(cc(O)c3c1C(=O)c1cccc(O)c1-3)C2=O [compound 14, FST S]	> 64
CC(=O)NN1c2c(c3c(c4c2C(=O)C(C)(O)C=C4)C(=O)c2cccc(O)c2-3)OC2C1c1c(cc(O)c3c1C(=O)c1cccc(O)c1-3)C(=O)C2(C)O (centres unmarked) [compound 15, difluostatin B]	> 64
Cc1cc(O)cc(O)c1C(=O)c1c(O)cccc1Cc1cc2c(c(=O)o1)C1c3c(cc(O)c4c3C(=O)c3cccc(O)c3-4)C(=O)C(C)(O2)C1O (centres unmarked) [compound 16, difluostatin C]	> 64
CC12OC1C(O)c1c(cc(O)c3c1C(=O)c1c(C4c5c(cc(O)c6c5C(=O)c5cccc(O)c5-6)C(=O)C5(C)OC45)ccc(O)c1-3)C2=O (centres unmarked) [compound 24, difluostatin F]	> 64
COC1c2c(cc(O)c3c2C(=O)c2c(C4c5c(cc(O)c6c5C(=O)c5cccc(O)c5-6)C(=O)C5(C)OC45)ccc(O)c2-3)C(=O)C2(C)OC12 (centres unmarked) [compound 26, difluostatin H]	> 64
Cc1ccc2c(c1)OC1(C)C(=O)c3cc(O)c4c(c3C(N2)C1O)C(=O)c1cccc(O)c1-4 (centres unmarked) [compound 33, 33]	> 64

These compounds were tested on T7, S. aureus ATCC 29213 (assay: microbe, parasite or virus in culture). Settings: Staphylococcus aureus, ATCC29213, 18 h.
T7 construct: ATCC 29213
Parameters: broth microdilution in Mueller-Hinton broth, minimum inhibitory concentration
Procedure: as §1

SMILES	MIC [µg/mL]
COc1cc(Cc2cnc(N)nc2N)cc(OC)c1OC [Trimethoprim]	0.5 (≈ 1.72 µM)
Cc1ccc2c3c(c(O)cc2c1O)-c1c(O)cccc1C3=O [compound 12, isoprefluostatin]	64 (≈ 219 µM)
C[C@]12O[C@H]1[C@H](Nc1ccc(C(=O)O)cc1)c1c(cc(O)c3c1C(=O)c1cccc(O)c1-3)C2=O [compound 14, FST S]	> 64
CC(=O)NN1c2c(c3c(c4c2C(=O)C(C)(O)C=C4)C(=O)c2cccc(O)c2-3)OC2C1c1c(cc(O)c3c1C(=O)c1cccc(O)c1-3)C(=O)C2(C)O (centres unmarked) [compound 15, difluostatin B]	> 64
Cc1cc(O)cc(O)c1C(=O)c1c(O)cccc1Cc1cc2c(c(=O)o1)C1c3c(cc(O)c4c3C(=O)c3cccc(O)c3-4)C(=O)C(C)(O2)C1O (centres unmarked) [compound 16, difluostatin C]	> 64
CC12OC1C(O)c1c(cc(O)c3c1C(=O)c1c(C4c5c(cc(O)c6c5C(=O)c5cccc(O)c5-6)C(=O)C5(C)OC45)ccc(O)c1-3)C2=O (centres unmarked) [compound 24, difluostatin F]	> 64
COC1c2c(cc(O)c3c2C(=O)c2c(C4c5c(cc(O)c6c5C(=O)c5cccc(O)c5-6)C(=O)C5(C)OC45)ccc(O)c2-3)C(=O)C2(C)OC12 (centres unmarked) [compound 26, difluostatin H]	> 64
Cc1ccc2c(c1)OC1(C)C(=O)c3cc(O)c4c(c3C(N2)C1O)C(=O)c1cccc(O)c1-4 (centres unmarked) [compound 33, 33]	> 64
